From ChEMBL document CHEMBL4765253, “Discovery, synthesis, and optimization of an N-alkoxy indolylacetamide against HIV-1 carrying NNRTI-resistant mutations from the Isatis indigotica root” (Eur J Med Chem, 2020)

Key:
[1] = tested on: Human immunodeficiency virus 1; assay: (§1) Antiviral activity against VSVG/HIV-1 harboring reverse transcriptase L100I/K103N double mutant infected in human HEK 293T cells assessed as inhibition of virus replication preincubated with cells for 15 mins prior to viral infection and measured at 48 hrs post-infection by luciferase reporter gene assay; type: functional, organism-based; conditions: hek293t
[2] = Inhibition of HIV-1 reverse transcriptase RNA-dependent DNA polymerase activity assessed as reduction in dTTP incorporation using poly(rA)/oligo(dT) as template/primer incubated for 1 hr followed by transferring into streptavidin plate for 1 hr by absorbance based analysis; parameters: species or system Human immunodeficiency virus 1
[3] = tested on: Human immunodeficiency virus 1; type: functional, organism-based, HEK293T
[4] = tested on: Human immunodeficiency virus 1; assay: as §1, with “G190A/K103N” for “L100I/K103N”; type: functional, organism-based, HEK293T
[5] = tested on: Human immunodeficiency virus 1; assay: Antiviral activity against VSVG/HIV-1 harboring reverse transcriptase K103N mutant infected in human HEK 293T cells assessed as inhibition of virus replication preincubated with cells for 15 mins prior to viral infection and measured at 48 hrs post-infection by luciferase reporter gene assay; type: functional, organism-based, HEK293T
[6] = Inhibition of RNase H activity of HIV-1 reverse transcriptase using DNA/RNA hybrid as substrate incubated for 30 mins by fluorescence based analysis; parameters: species or system Human immunodeficiency virus 1
[7] = tested on: Human immunodeficiency virus 1; assay: Antiviral activity against VSVG/wild-type HIV-1 infected in human HEK 293T cells assessed as inhibition of virus replication preincubated with cells for 15 mins prior to viral infection and measured at 48 hrs post-infection by luciferase reporter gene assay; type: functional, organism-based, HEK293T; conditions: Human immunodeficiency virus 1, HEK-293T
[8] = tested on: HEK-293T; assay: Cytotoxicity against human HEK 293T cells assessed as reduction in cell viability measured after 48 hrs by Celltiter-glo assay; type: cell-based
[9] = tested on: Human immunodeficiency virus 1; type: functional, organism-based, HEK293T; remark: listed apart in the source
[10] = tested on: Human immunodeficiency virus 1; assay: as §1, with “V108I/K103N” for “L100I/K103N”; type: functional, organism-based, HEK293T
[11] = tested on: Human immunodeficiency virus 1; type: functional, organism-based, HEK293T; remark: listed apart in the source
[12] = tested on: Human immunodeficiency virus 1; assay: Antiviral activity against VSVG/wild-type HIV-1 infected in human HEK 293T cells assessed as time during which compound exhibits 50% virologic failure at 1 uM treated at post-viral infection and measured at 48 hrs post-infection by luciferase reporter gene assay; type: functional, HEK293T
[13] = tested on: HEK-293T; assay: Cytotoxicity against human HEK 293T cells assessed as cell viability at 30 uM measured after 48 hrs by Celltiter-glo assay; type: cell-based
[14] = Selectivity index, ratio of CC50 for human HEK 293T cells to EC50 for VSVG/wild type HIV1 infected in human HEK 293T cells; type: toxicity, cell-based; conditions: read-out: Ratio CC50/EC50
[15] = Human immunodeficiency virus 1, HEK-293T

| SMILES | EC50 [1] [µM] | IC50 [6] [µM] | EC50 [7] [µM] | CC50 [8] [µM] | Activity [13] [%] | selectivity ratio [14] | also measured |
| --- | --- | --- | --- | --- | --- | --- | --- |
| CCCOn1cc(CC(=O)Nc2ccccc2Cl)c2ccccc21 | 8.95 | > 100 | 0.29 | 29.5 | – | – | IC50 [2]: 0.27 µM; EC50 [3, 15]: > 10 µM; EC50 [4, 15]: > 10 µM; EC50 [5, 15]: > 10 µM; EC50 [9, 15]: > 10 µM; EC50 [10, 15]: > 10 µM; EC50 ([11]; hek293t): 2.13 µM |
| Cc1nnc(C(=O)NC(C)(C)c2nc(C(=O)NCc3ccc(F)cc3)c(O)c(=O)n2C)o1 | – | – | – | – | – | – | FT50 [12]: 12.2 h |
| CCCOn1cc(CC(=O)Nc2ccncc2Cl)c2ccccc21 | 1.18 | > 100 | 0.06 | 16.4 | – | – | IC50 [2]: 0.11 µM; EC50 ([3]; hek293t): 1.85 µM; EC50 ([4]; hek293t): 1.38 µM; EC50 [5, 15]: 0.7 µM; EC50 ([10]; hek293t): 1.27 µM; EC50 ([11]; hek293t): 0.18 µM |
| Cc1ccnc2c1NC(=O)c1cccnc1N2C1CC1 [NEVIRAPINE] | 0.76 | – | – | > 30 | 93.26 | – | EC50 [3, 15]: 80 µM; EC50 ([4]; hek293t): 14.6 µM; EC50 ([5]; hek293t): 1.4 µM; EC50 [9, 15]: > 100 µM; EC50 ([10]; hek293t): 2.87 µM |
| O=C(Cc1cn(OCCc2ccccc2)c2ccccc12)Nc1ccccc1Cl | – | – | 5.5 | > 30 | 49.31 | > 5.45 | – |
| CCCOn1cc(CC(=O)Nc2ccccc2C(=O)OC)c2ccccc21 | – | – | 6.7 | > 30 | 55.39 | > 4.48 | – |
| O=C1Nc2ccc(Cl)cc2[C@@](C#CC2CC2)(C(F)(F)F)O1 [EFAVIRENZ] | 1.08 | – | – | 23.7 | – | – | EC50 [3, 15]: 0.05 µM; EC50 ([4]; hek293t): 0.18 µM; FT50 [12]: 9.4 h; EC50 [5, 15]: 0.03 µM; EC50 ([9]; hek293t): 0.12 µM; EC50 [10, 15]: 0.06 µM; EC50 [11, 15]: 0.002 µM |
| COn1cc(CC(=O)Nc2ccccc2I)c2ccccc21 | – | – | 4.4 | > 30 | 67.04 | > 6.82 | – |
| COn1cc(CC(=O)Nc2ccccc2Br)c2ccccc21 | – | – | 3.2 | > 30 | 83.48 | > 9.38 | – |
| COC(=O)c1ccccc1NC(=O)Cc1cn(OC)c2ccccc12 | – | > 30 | – | – | – | – | – |
| CCCCCCOn1cc(CC(=O)Nc2ccccc2Cl)c2ccccc21 | – | – | 1.02 | > 30 | 56.95 | > 29.4 | – |
| Cc1cn([C@H]2C[C@H](N=[N+]=[N-])[C@@H](CO)O2)c(=O)[nH]c1=O [ZIDOVUDINE] | – | – | – | – | – | – | FT50 [12]: 8.5 h |
| CCCCOn1cc(CC(=O)Nc2ccncc2Cl)c2ccccc21 | 0.43 | > 100 | 0.04 | 22.1 | – | – | IC50 [2]: 0.08 µM; EC50 [4, 15]: 0.7 µM; EC50 ([9]; hek293t): 1.42 µM; EC50 ([10]; hek293t): 0.56 µM; EC50 [11, 15]: 0.04 µM |
